Test results as given in patent US9618507B2, “Methods of treating rheumatoid arthritis” (Betanien Hospital, priority 2014, dated 2017).
Where a SMILES comes first, the peptide text is derived from it. [ ]: non-standard residue; d: D form. dPhe(4-Cl) = N[C@H](Cc1ccc(Cl)cc1)C(=O)O; d2Nal = N[C@H](Cc1ccc2ccccc2c1)C(=O)O; dCit = NC(=O)NCCC[C@@H](N)C(=O)O; d3Pal = N[C@H](Cc1cccnc1)C(=O)O

Legend:
RA patients = experiment: Example 1: randomized, double-blind, placebo-controlled study, disease activity (DAS28-CRP, ACR responses, core set measures); assay type: in vivo, human
Protocol: In this randomized, double-blind, placebo-controlled, single-centre study, males and females aged ≧18 years with RA according to the 1987 revised American College of Rheumatology (ACR) criteria, and with a 28-joint Disease Activity Score based on C-reactive protein (DAS28-CRP)>3.2 were enrolled.
Ethical committee approval was obtained. […] Safety and efficacy visits, with blood sampling, were between 0730 and 0930 h on days 1 (baseline), 2, 3, 4, 5 (visit 5a), 10, and 15. There was an additional visit (visit 5b) between 1930 and 2130 h when maximum GnRH suppression was anticipated.
Predefined secondary end-points included the baseline adjusted between-group difference inTNF-α, ACR20/50/70 responses, European League Against Rheumatism (EULAR) responses, DAS28-CRP <2.6 and ≦3.2, and adverse events.
Menstruating women could only enter the study in the early follicular phase of their menstrual cycle. The concomitant use of stable doses of disease-modifying anti-rheumatic drugs (DMARDs) for at least 8 weeks, stable prednisolone ≦7.5 mg daily for at least 4 weeks, and stable non-steroidal anti-inflammatory drugs (NSAIDs) for at least 2 weeks was allowed if these doses were continued throughout the study. Key exclusion criteria were as follows: pregnancy or breastfeeding females; corticosteroid injections within the trial or 4 weeks prior to screening; biological agents were not permitted during the trial or within 4 weeks prior to inclusion in the trial (with the exception of infliximab or adalimumab which were not permitted within 3 months prior to inclusion in the trial; and rituximab which was not permitted within 6 months prior to inclusion in the trial). A history of hormone-dependent cancers ever or non-hormone-dependent cancers within 5 years prior to screening: infections requiring intravenous antibiotic treatment within 30 days, or oral antibiotics within 14 days prior to enrolment; significant renal or hepatic impairment; and any treatment with hormone replacement therapy or oral contraception were also exclusion criteria.
The Newcombe hybrid score interval was used to estimate 95% confidence intervals (CI) for the difference between proportions (Fagerland M W, et al., Stat Methods Med Res 2011). No adjustments for multiple analyses were made, owing to the highly correlated variables. All clinical, biochemical, and safety data were analyzed by an intention-to-treat analysis. Only predefined endpoints are presented. The intention-to-treat population was predefined in the protocol as all randomized patients who received any injections of study drug. Missing values were <1% and could, as predefined, be imputed with the last observation carried forward. The assumptions of normality needed for analyses were approximately valid. The Spearman rank correlation coefficient (Spearman's rho) was used to estimate the association between pairs of continuous variables.

CRP, ESR = conditions: all patients
Protocol: Ethical committee approval was obtained. A blinded independent committee, the Oslo University Hospital Data Monitoring Committee, regularly reviewed source documents against case record forms. Safety and efficacy visits, with blood sampling, were between 0730 and 0930 h on days 1 (baseline), 2, 3, 4, 5 (visit 5a), 10, and 15. There was an additional visit (visit 5b) between 1930 and 2130 h when maximum GnRH suppression was anticipated. Using computer-generated allocation, patients were randomly assigned 1:1 to cetrorelix (5 mg/day s.c. on days 1 and 2, 3 mg/day on days 3-5) or corresponding volumes of placebo. The cetrorelix doses were chosen to achieve rapid reductions in GnRH, LH, a surrogate marker for GnRH, and FSH. TNF-α was measured using multiplex technology with a high sensitivity (0.5 pg/mL) assay.
The predefined primary end-point was the baseline adjusted between-group difference in DAS28-CRP by visit 5b. Predefined secondary end-points included the baseline adjusted between-group difference inTNF-α, ACR20/50/70 responses, European League Against Rheumatism (EULAR) responses, DAS28-CRP <2.6 and ≦3.2, and adverse events. Continuous end-points were assessed with regression using day 5 as the response variable, and treatment and baseline measurement as covariates (ANCOVA). No adjustments for multiple analyses were made because of the highly correlated variables. Statistical tests were twosided (α ¼0.05) using Stat12/StatXact9, and performed by an offsite statistician who received the locked database from the blinded investigators, and the allocation key from the offsite central office.

CRP = conditions: high gonadotropin patients, by day 15
Protocol: The protocol-specified primary and secondary intention-to-treat endpoints of the original AGRA trial were analyzed in these post hoc analyses. The primary endpoint was the baseline-adjusted between-group difference in DAS28-CRP (Wells et al., supra) by day 5b. […] Multiplex technology (Luminex Inc., Austin, Tex.) measured these serum cytokines using high-sensitivity assays (sensitivities <0.5 pg/mL, allowing the detection of very low concentrations of cytokines) and identical lots of critical reagent of negligible cross-reactivity <2%, according to manufacturers' instructions (Bio-Rad, Hercules, Calif.). […]
The original power calculation is previously reported (Kass A S, et al., Scand J Rheumatol Epub ahead of print 1 Nov. 2013). Baseline-adjusted between-group differences for all continuous endpoints were assessed with the use of analysis-of-covariance using outcome measurements at predefined time points as response variables, and treatment and baseline measurements as covariates. […]

CC(=O)N[C@H](Cc1ccc2ccccc2c1)C(=O)N[C@H](Cc1ccc(Cl)cc1)C(=O)N[C@H](Cc1cccnc1)C(=O)N[C@@H](CO)C(=O)N[C@@H](Cc1ccc(O)cc1)C(=O)N[C@H](CCCNC(N)=O)C(=O)N[C@@H](CC(C)C)C(=O)N[C@@H](CCCNC(=N)N)C(=O)N1CCC[C@H]1C(=O)N[C@H](C)C(N)=O [cetrorelix] (Ac-[d2Nal][dPhe(4-Cl)][d3Pal]SY[dCit]LRP[dA]-NH2)
DAS28-CRP between-group difference vs placebo (RA patients; all patients, baseline adjusted, day 5, 95% CI −0.04 to 0.57, p 0.091): 0.26 | patients achieving DAS28-CRP<2.6 (RA patients; all patients, by day 5, placebo 0%): 13% | patients achieving ACR20 responses (RA patients; all patients, by day 5, placebo 18%): 40% | DAS28-CRP reduction by day 5 (RA patients; all patients, cetrorelix n=48, 5 mg/day s.c. days 1-2, 3 mg/day days 3-5, day 5): 0.82 | ACR50/70 responses compared with placebo (RA patients; all patients, day 5, FIG. 1A): More patients reached ACR50/70 responses | core set measures of disease activity compared with placebo (RA patients; all patients, except physician global assessment): non-significant greater improvements | DAS28-CRP reduction, prednisolone users (n 24) vs non-users (n 24) (RA patients; cetrorelix group, p 0.40): did not differ | CRP levels after withdrawal of treatment (CRP, ESR; by day 15): remained lowered | CRP reduction compared to placebo (CRP, ESR; day 5, p 0.060): Non-significant reductions | ESR reduction compared to placebo (CRP, ESR; day 15, p 0.051): Non-significant reductions | CRP between-group difference (CRP; 95% CI 0.22 to 10.7, P=0.042): 5.45 mg/L | CRP change (CRP; placebo 0.85): -5.1 mg/L
